Data taken from patent publication US9232796B2, “Herbicidal compositions comprising 4-amino-3-chloro-5-fluoro-6-(4-chloro-2-fluoro-3-methoxyphenyl) pyridine-2-carboxylic acid or a derivative thereof and acetyl-CoA carboxylase (ACCase) inhibitors” (DOW AGROSCIENCES LLC, priority 2012, dated 2016).
Values joined by “and” are separate entries in the source; they are usually repeats but may differ in a detail not shown here. Equal values may be shown once.

What was measured:
[1] = system: IPOHE; experiment: Example I postemergence foliar-applied, greenhouse, direct seeded rice weeds; assay type: in vivo, Ipomoea hederacea Jacq.
Method in brief: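 Foliar spray, 187 L/ha, 1.25% (v/v) COC; plants at 1st–4th true leaf, greenhouse ~29/26 °C, 14 h light. Compound A acid/esters (SC) ± ACCase inhibitors, rates on ae/ai basis. Visual 0–100% injury vs untreated at ~3 wk; Colby expected values.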

[2] = system: ECHOR; experiment: Example V (second) postemergence foliar-applied ternary mixtures, greenhouse, direct seeded rice weeds; assay type: in vivo, Echinochloa oryzoides (Ard.) Fritsch
Procedure: Seeds or nutlets of the desired test plant species were planted in a soil matrix prepared by mixing a sandy loam or loam soil (e.g., 32 percent silt, 23 percent clay, and 45 percent sand, with a pH of about 6.5 and an organic matter content of about 1.9 percent) and calcareous grit in an 80 to 20 ratio. The soil matrix was contained in plastic pots with a volume of 1 quart and a surface area of 83.6 square centimeters (cm^2). […] The plants were grown for 8-22 days in a greenhouse with an approximate 14 hr. photoperiod which was maintained at about 29° C. during the day and 26° C. during the night. Nutrients (Peters Excel® 15-5-15 5-Ca 2-Mg and iron chelate) were applied in the irrigation solution as needed and water was added on a regular basis. Supplemental lighting was provided with overhead metal halide 1000-Watt lamps as necessary. The plants were employed for testing when they reached the first through fourth true leaf stage.
Treatments consisted of the benzyl ester of 4-amino-3-chloro-5-fluoro-6-(4-chloro-2-fluoro-3-methoxy-phenyl)pyridine-2-carboxylic acid (Compound A), formulated as an SC (suspension concentrate), an ACCase inhibitor, and a third herbicidal component, each applied alone and in ternary combination. Forms of compound A were applied on an acid equivalent basis.
For treatments comprised of formulated compounds, measured amounts of compounds were placed individually in 25 mL glass vials and diluted in a volume of 1.25% (v/v) Agri-Dex® crop oil concentrate to obtain 12× stock solutions. […] Application solutions were prepared by adding an appropriate amount of each stock solution (e.g., 1 mL) and diluted to the appropriate final concentrations with the addition of 9 mL of an aqueous mixture of 1.25% (v/v) crop oil concentrate so that the final spray solutions contained 1.25% (v/v) crop oil concentrate.
As required, additional water and/or 97:3 v/v acetone/DMSO was added to individual application solutions so that the final acetone and DMSO concentrations of the application solutions being compared were 8.1% and 0.25%, respectively.
All stock solutions and applications solutions were visually inspected for compound compatibility prior to application. Spray solutions were applied to the plant material with an overhead Mandel track sprayer equipped with a 8002E nozzles calibrated to deliver 187 L/ha over an application area of 0.503 m^2 at a spray height of 18 inches (46 cm) above average plant canopy height. Control plants were sprayed in the same manner with the solvent blank.
The treated plants and control plants were placed in a greenhouse as described above and watered by sub-irrigation to prevent wash-off of the test compounds. After approximately 3 weeks, the condition of the test plants as compared with that of the untreated plants was determined visually and scored on a scale of 0 to 100 percent where 0 corresponds to no injury or growth inhibition and 100 corresponds to complete kill.
Colby's equation was used to determine the herbicidal effects expected from the mixtures (Colby, S. R. 1967. Calculation of the synergistic and antagonistic response of herbicide combinations. Weeds 15:20-22.).
The following equation was used to calculate the expected activity of mixtures containing three active ingredients, A, B, and C: Expected=A+B+C−((A×B+A×C+B×C)/100)+(A×B×C/10000)

COc1c(Cl)ccc(-c2nc(C(=O)O)c(Cl)c(N)c2F)c1F [Compound A Acid, 4-amino-3-chloro-6-(4-chloro-2-fluoro-3-methoxyphenyl)-5-fluoropyridine-2-carboxylic acid]
Visual Weed Control (%) - 19 DAA IPOHE Obs ([1]; 4.38 gae/ha): 0% | Visual Weed Control (%) - 20 DAA IPOHE Obs ([1]; 4.38 gae/ha): 10% and 0% | Visual Weed Control (%) - 24 DAA IPOHE Obs ([1]; 4.38 gae/ha): 10% | Visual Weed Control (%) - 19 DAA IPOHE Obs ([1]; 8.75 gae/ha): 10% | Visual Weed Control (%) - 20 DAA IPOHE Obs ([1]; 8.75 gae/ha): 30% and 20% | Visual Weed Control (%) - 24 DAA IPOHE Obs ([1]; 8.75 gae/ha): 10% | Visual Weed Control (%) - 19 DAA IPOHE Obs ([1]; 17.5 gae/ha): 35% | Visual Weed Control (%) - 20 DAA IPOHE Obs ([1]; 17.5 gae/ha): 40% | Visual Weed Control (%) - 24 DAA IPOHE Obs ([1]; 17.5 gae/ha): 30% | Visual Weed Control (%) - 20 DAA IPOHE Obs ([1]; 19.4 gae/ha): 15%

COc1c(Cl)ccc(-c2nc(C(=O)OCc3ccccc3)c(Cl)c(N)c2F)c1F [Compound A Benzyl Ester, benzyl ester of 4-amino-3-chloro-5-fluoro-6-(4-chloro-2-fluoro-3-methoxy-phenyl)pyridine-2-carboxylic acid]
Visual Weed Control (%) - 19 DAA IPOHE Obs ([1]; 4.38 gae/ha): 0% | Visual Weed Control (%) - 19 DAA IPOHE Obs ([1]; 8.75 gae/ha): 0% | Visual Weed Control (%) - 21 DAA IPOHE Obs ([1]; 16 gae/ha): 10% | Visual Weed Control (%) - 21 DAA IPOHE Obs ([1]; 32 gae/ha): 25% | Visual Weed Control (%) - 22 DAA IPOHE Obs ([1]; 32 gae/ha): 45% | Visual Weed Control (%) - 22 DAA ECHOR Obs ([2]; 8 gae/ha): 13% and 25% | Visual Weed Control (%)- 22 DAA ECHOR Obs ([2]; 8 gae/ha): 13% | Visual Weed Control (%) - 22 DAA ECHOR Obs ([2]; 16 gae/ha): 35% | Visual Weed Control (%)- 22 DAA ECHOR Obs ([2]; 16 gae/ha): 40%

CCCCOC(=O)[C@@H](C)Oc1ccc(Oc2ccc(C#N)cc2F)cc1 [Cyhalofop-butyl, butyl(2R)-2-[4-(4-cyano-2-fluorophenoxy)phenoxy]propanoate, reference compound]
Visual Weed Control (%) - 20 DAA IPOHE Obs ([1]; 280 gai/ha): 0% | Visual Weed Control (%)- 22 DAA ECHOR Obs ([2]; 17.5 gai/ha): 0% | Visual Weed Control (%) - 22 DAA ECHOR Obs ([2]; 35 gai/ha): 15% | Visual Weed Control (%)- 22 DAA ECHOR Obs ([2]; 35 gai/ha): 15%

C[C@@H](Oc1ccc(Oc2nc3ccc(Cl)cc3o2)cc1)C(=O)N(C)c1ccccc1F [Metamifop, (2R)-2-[4-[(6-chloro-2-benzoxazolyl)oxy]phenoxy]-N-(2-fluorophenyl)-N-methylpropanamide]
Visual Weed Control (%) - 22 DAA IPOHE Obs ([1]; 9.38 gai/ha): 0% | Visual Weed Control (%) - 22 DAA IPOHE Obs ([1]; 18.75 gai/ha): 0% | Visual Weed Control (%) - 22 DAA IPOHE Obs ([1]; 37.5 gai/ha): 0% | Visual Weed Control (%) - 24 DAA IPOHE Obs ([1]; 150 gai/ha): 0%

CCC/C(=N\OCC(C)Oc1ccc(Cl)cc1)C1=C(O)CC(C2CCCSC2)CC1=O (stereo not drawn) [Profoxydim, 2-[1-[[2-(4-chlorophenoxy)propoxy]imino]butyl]-3-hydroxy-5-(tetrahydro-2H-thiopyran-3-yl)-2-cyclohexen-1-one, reference compound]
Visual Weed Control (%) - 22 DAA ECHOR Obs ([2]; 3.12 gai/ha): 0%

CCOC(=O)[C@@H](C)Oc1ccc(Oc2cnc3cc(Cl)ccc3n2)cc1 [Quizalofop-p-ethyl, ethyl(2R)-2-[4-[(6-chloro-2-quinoxalinyl)oxy]phenoxy]propanoate, reference compound]
Visual Weed Control (%) - 22 DAA IPOHE Obs ([1]; 1.88 gai/ha): 0% | Visual Weed Control (%) - 22 DAA IPOHE Obs ([1]; 3.75 gai/ha): 0% | Visual Weed Control (%) - 22 DAA IPOHE Obs ([1]; 7.5 gai/ha): 0% | Visual Weed Control (%) - 20 DAA IPOHE Obs ([1]; 15 gai/ha): 0% | Visual Weed Control (%) - 20 DAA IPOHE Obs ([1]; 30 gai/ha): 0%
